biological target: T1, ETA Receptor (Rattus norvegicus, UniProt P26684); experiment: [125I]ET-1 binding to membranes from MMQ cells (ETA receptor binding assay, Table 4); conditions: test compound at 1 μM; 0.1 nM [125I]ET-1, MMQ cell membranes, 4 hours at 25° C.
T1 construct: endogenous in cells; host or cells: MMQ rat pituitary cells (membranes)
T1 sequence (P26684 21-426): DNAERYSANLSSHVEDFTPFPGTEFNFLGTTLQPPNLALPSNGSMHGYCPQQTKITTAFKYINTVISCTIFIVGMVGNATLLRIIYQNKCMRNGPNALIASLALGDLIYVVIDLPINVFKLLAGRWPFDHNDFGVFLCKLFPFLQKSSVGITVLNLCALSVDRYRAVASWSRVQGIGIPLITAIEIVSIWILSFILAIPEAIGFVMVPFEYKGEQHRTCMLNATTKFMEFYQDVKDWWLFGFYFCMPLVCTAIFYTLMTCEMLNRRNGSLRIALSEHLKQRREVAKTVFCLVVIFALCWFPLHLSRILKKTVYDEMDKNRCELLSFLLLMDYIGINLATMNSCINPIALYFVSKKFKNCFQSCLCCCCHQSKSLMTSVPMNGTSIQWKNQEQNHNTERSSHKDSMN
Procedure: Preparation of Membranes from MMQ Cells:
MMQ [MacLeod/MacQueen/Login cell line (prolactin secreting rat pituitary cells)] cells from 150 mL culture flasks were collected by centrifugation (1000×g for 10 min) and then homogenized in 25 mL of 10 mM Hepes (pH 7.4) containing 0.25 M sucrose and protease inhibitors [3 mM EDTA, 0.1 mM PMSF, and 5 μg/mL Pepstatin A] by a micro ultrasonic cell disrupter (Kontes). The mixture was centrifuged at 1000×g for 10 min. The supernatant was collected and centrifuged at 60,000×g for 60 min. The precipitate was resuspended in 20 mM Tris, pH 7.4 containing the above protease inhibitors and centrifuged again. The final pellet was resuspended in 20 mM Tris, pH 7.4 containing protease inhibitors and stored at −80° C. until used. Protein content was determined by the Bio-Rad dye-binding protein assay.
Binding assays were performed in 96-well microtiter plates pretreated with 0.1% BSA. […] After incubation, unbound ligands were separated from bound ligands by a vacuum filtration method using glass-fiber filter strips in PHD cell harvesters (Cambridge Technology, Inc., MA), followed by washing the filter strips with saline (1 mL) for three times. Nonspecific binding was determined in the presence of 1 μM ET-1.

SMILES | % Inhibition of ETA at 1 μM
CCCCN(CCCC)C(=O)CN1CC(c2ccc3c(c2)OCO3)C(C(=O)O)C1c1cccnc1 (stereo not drawn) [Example 130, trans,trans-1-(N,N-Di(n-butyl)aminocarbonylmethyl)-2-(3-pyridyl)-4-(1,3-benzodioxol-5-yl)pyrrolidine-3-carboxylic acid] | 91.0%
COc1ccc(C2C(C(=O)O)C(c3ccc4c(c3)OCO4)CN2CCOc2ccccc2)cc1 (stereo not drawn) [Example 21, trans,trans-2-(4-Methoxyphenyl)-4-(1,3-benzodioxol-5-yl)-1-(2-phenoxyethyl)-pyrrolidine-3-carboxylic acid] | 56.3%
CCCN(CCN1CC(c2ccc3c(c2)OCO3)C(C(=O)O)C1c1ccc(OC)cc1)S(=O)(=O)CCCCl (stereo not drawn) [Example 124, trans,trans-1-(2-(N-Propyl-N-(3-chloropropylsulfonyl)amino)ethyl)-2-(4-methoxyphenyl)-4-(1,3-benzodioxol-5-yl)pyrrolidine-3-carboxylic acid] | 91.0%
CCCC#CCN1CC(c2ccc3c(c2)OCO3)C(C(=O)O)C1c1ccc(OC)cc1 (stereo not drawn) [Example 37, trans,trans-2-(4-Methoxyphenyl)-4-(1,3-benzodioxol-5-yl)-1-(2-hexynyl)-pyrrolidine-3-carboxylic acid] | 47.9%
CCOCCN1CC(c2ccc3c(c2)OCO3)C(C(=O)O)C1c1ccc(OC)cc1 (stereo not drawn) [Example 4, trans,trans-2-(4-Methoxyphenyl)-4-(1,3-benzodioxol-5-yl)-1-(2-ethoxyethyl)-pyrrolidine-3-carboxylic acid] | 78.2%
CCCN(CCN1CC(c2ccc3c(c2)OCO3)C(C(=O)O)C1c1ccc(OC)cc1)S(=O)(=O)c1cccc2c(N(C)C)cccc12 (stereo not drawn) [Example 127, trans,trans-1-(2-(N-Propyl-N-(5-dimethylamino-1-naphthylsulfonyl)amino)ethyl)-2-(4-methoxyphenyl)-4-(1,3-benzodioxol-5-yl)pyrrolidine-3-carboxylic acid] | 91.4%
COCCN(CCOC)C(=O)CN1CC(c2ccc3c(c2)OCO3)C(C(=O)O)C1c1ccc(OC)cc1 (stereo not drawn) [Example 36, trans,trans-2-(4-Methoxyphenyl)-4-(1,3-benzodioxol-5-yl)-1-(N,N-di(2-methoxyethyl)aminocarbonylmethyl)-pyrrolidine-3-carboxylic acid] | 94.5%
CCCCN(CCCC)C(=O)CN1CC(c2cccc3occc23)C(C(=O)O)C1c1ccc(OC)cc1 (stereo not drawn) [Example 139, trans,trans-1-(N,N-Di(n-butyl)aminocarbonylmethyl)-2-(4-methoxyphenyl)-4-(4-benzofuranyl)pyrrolidine-3-carboxylic acid] | 98.6%
COc1ccc(C2C(C(=O)O)C(c3ccc4c(c3)OCO4)CN2CC(=O)N2CCCC2)cc1 (stereo not drawn) [Example 17, trans,trans-2-(4-Methoxyphenyl)-4-(1,3-benzodioxol-5-yl)-1-(pyrrolidin-1-ylcarbonylmethyl)-pyrrolidine-3-carboxylic acid] | 73.9%
CCCN(C)C(=O)CN1CC(c2ccc3ccccc3c2)C(C(=O)O)C1c1ccc(OC)cc1 (stereo not drawn) [Example 56, trans,trans-2-(4-Methoxyphenyl)-4-(2-naphthyl)-1-(N-methyl-N-propyl)aminocarbonylmethyl)-pyrrolidine-3-carboxylic acid] | 34.3%
CCCCN(CCCC)C(=O)CN1CC(c2ccc3c(c2)OCO3)C(C(=O)O)C1C(C)C (stereo not drawn) [Example 157, trans,trans-1-(N,N-Di(n-butyl)aminocarbonylmethyl)-2-(isopropyl)-4-(1,3-benzodioxol-5-yl)pyrrolidine-3-carboxylic acid] | 83.8%
CCCCN(CCCC)C(=O)C(C)N1CC(c2ccc3c(c2)OCO3)C(C(=O)O)C1c1ccc(OC)cc1 (racemic) [Example 91C, trans,trans-2-(4-Methoxyphenyl)-4-(1,3-benzodioxol-5-yl)-1-((N,N-dibutylamino)carbonyl-1-(RS)-ethyl)pyrrolidine-3-carboxylic acid] | 91.6%
COCCOc1ccc(C2C(C(=O)O)C(c3ccc4c(c3)OCO4)CN2CC(=O)NN(c2ccccc2)C(C)(C)C)cc1 (stereo not drawn) [Example 561, trans,trans-2-(4-(2-Methoxyethoxy)phenyl)-4-(1,3-benzodioxol-5-yl)-1-(N-phenyl-N-t-butylhydrazinocarbonylmethyl)-pyrrolidine-3-carboxylic acid] | 0%
COc1ccc(C2C(C(=O)O)C(c3ccc4c(c3)OCO4)CN2CC(=O)N(C)c2ccccc2)cc1 (stereo not drawn) [Example 45, trans,trans-2-(4-Methoxyphenyl)-4-(1,3-benzodioxol-5-yl)-1-(N-methyl-N-phenylaminocarbonylmethyl)-pyrrolidine-3-carboxylic acid] | 85.4%
CCCN(CCN1CC(c2ccc3c(c2)OCO3)C(C(=O)O)C1c1ccc(OC)cc1)S(=O)(=O)c1ccc(F)cc1 (stereo not drawn) [Example 134, trans,trans-1-(2-(N-Propyl-N-(4-fluorobenzenesulfonyl)amino)ethyl)-2-(4-methoxyphenyl)-4-(1,3-benzodioxol-5-yl)pyrrolidine-3-carboxylic acid] | 92.2%
COCCOCCN1CC(c2ccc3c(c2)OCO3)C(C(=O)O)C1c1ccc(OC)cc1 (stereo not drawn) [Example 6B, trans,trans-2-(4-Methoxyphenyl)-4-(1,3-benzodioxol-5-yl)-1-[2-(2-methoxyethoxy)ethyl]-pyrrolidine-3-carboxylic acid] | 34.9%
CCCCN(CCCC)C(=O)CN1CC(c2ccc(OC)cc2OC)C(C(=O)O)C1c1ccc(OC)cc1 (stereo not drawn) [Example 151, trans,trans-1-(N,N-Di(n-butyl)aminocarbonylmethyl)-2-(4-methoxyphenyl)-4-(2,4-dimethoxyphenyl)pyrrolidine-3-carboxylic acid] | 80.5%
CCCCOCCN1CC(c2ccc(OC)cc2)C(C(=O)O)C1c1ccc2c(c1)OCO2 (stereo not drawn) [Example 27, trans,trans-2-(1,3-Benzodioxol-5-yl)-4-(4-methoxyphenyl)-1-(butoxyethyl)-pyrrolidine-3-carboxylic acid] | 61.2%
CCCN(CCN1CC(c2ccc3c(c2)OCO3)C(C(=O)O)C1c1ccc(OC)cc1)S(=O)(=O)c1ccc([N+](=O)[O-])cc1 (stereo not drawn) [Example 298, trans,trans-2-(4-Methoxyphenyl)-4-(1,3-benzodioxol-5-yl)-1-(2-(N-propyl-N-(4-nitrobenzenesulfonyl)amino)ethyl)-pyrrolidine-3-carboxylic acid] | 93.3%
C=C(C)CS(=O)(=O)N(CCC)CCN1CC(c2ccc3c(c2)OCO3)C(C(=O)O)C1c1ccc(OC)cc1 (stereo not drawn) [Example 301, trans,trans-2-(4-Methoxyphenyl)-4-(1,3-benzodioxol-5-yl)-1-(2-(N-propyl-N-(2-methyl-2-propenesulfonyl)amino)ethyl)-pyrrolidine-3-carboxylic acid] | 96.7%
CCCCN(CCCC)C(=O)CN1CC(c2ccc3c(c2)OCO3)C(C(=O)O)C1c1ccccc1 (stereo not drawn) [Example 152, trans,trans-1-(N,N-Di(n-butyl)aminocarbonylmethyl)-2-phenyl-4-(1,3-benzodioxol-5-yl)pyrrolidine-3-carboxylic acid] | 86.9%
CCCCCS(=O)(=O)N(CCC)CCN1CC(c2ccc3c(c2)OCO3)C(C(=O)O)C1CCC (stereo not drawn) [Example 314, trans,trans-2-(Propyl)-4-(1,3-benzodioxol-5-yl)-1-(2-(N-propyl-pentanesulfonylamino)ethyl)pyrrolidine-3-carboxylic acid] | 86.0%
CCCCCN(C)C(=O)CN1CC(c2ccc3c(c2)OCO3)C(C(=O)O)C1c1ccc(OC)cc1 (stereo not drawn) [Example 39, trans,trans-2-(4-Methoxyphenyl)-4-(1,3-benzodioxol-5-yl)-1-(N-methyl-N-pentylaminocarbonylmethyl)-pyrrolidine-3-carboxylic acid] | 83.6%
CC[S+]([O-])CCN1CC(c2ccc3c(c2)OCO3)C(C(=O)O)C1c1ccc(OC)cc1 (stereo not drawn) [Example 57, trans,trans-2-(4-Methoxyphenyl)-4-(1,3-benzodioxol-5-yl)-1-(2-(ethylsulfinyl)ethyl)-pyrrolidine-3-carboxylic acid] | 93.2%
CCCCCCS(=O)(=O)N(CCC)CCN1CC(c2ccc3c(c2)OCO3)C(C(=O)O)C1c1ccc(OC)cc1 (stereo not drawn) [Example 306, trans,trans-2-(4-Methoxyphenyl)-4-(1,3-benzodioxol-5-yl)-1-(2-(N-propyl-N-hexanesulfonylamino)ethyl)-pyrrolidine-3-carboxylic acid] | 93.3%

same assay, conditions: test compound at 1 μM; 0.1 nM [125I]ET-1, MMQ cell membranes, 4 hours at 25° C.; read-out: % Inhibition of ETA at 1 μM

SMILES | inhibition at 1 µM
COc1ccc(C2C(C(=O)O)C(c3ccc4c(c3)OCO4)CN2CC(=O)Nc2ccccc2)cc1 (centres unmarked) [Example 495] | 95.9%

— US7208517B1, “Endothelin antagonists” (Abbott Labortories, priority 1994, dated 2007)
